ChEMBL document CHEMBL1201862, “PubChem BioAssay data set” (2004)
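Grown in 96-well plates, cells were treated for 48 hours with each compound at five concentrations. Insufficient inhibition: endpoint recorded as highest concentration tested. Abbreviation: GI50, concentration required for 50% inhibition of growth.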 Activity calls are given as the source filed them. Rule as the data show it: active = GI50 up to about 1.1 µM and inactive = higher.

Assays:
Assay in all cases: NCI tumour cell line growth inhibition, 48 h
M19-MEL = tested on: M19-MEL
HOP-62 = tested on: HOP-62
KM12 = tested on: KM12
MOLT-4 = tested on: MOLT-4
NCI-H460 = tested on: NCI-H460
EKVX = tested on: EKVX
UACC-257 = tested on: UACC-257
UO-31 = tested on: UO-31
HOP-92 = tested on: HOP-92
OVCAR-4 = tested on: OVCAR-4
A498 = tested on: A498
SK-OV-3 = tested on: SK-OV-3
RPMI-8226 = tested on: RPMI-8226
Malme-3M = tested on: Malme-3M
HL-60 = tested on: HL-60
HCT-116 = tested on: HCT-116
MDA-MB-435 = tested on: MDA-MB-435
Hs-578T = tested on: Hs-578T
DU-145 = tested on: DU-145
MDA-MB-231 = tested on: MDA-MB-231

SMILES	GI50 (M19-MEL)	GI50 (HOP-62)	GI50 (KM12)	GI50 (MOLT-4)	GI50 (NCI-H460)	GI50 (EKVX)	GI50 (UACC-257)	GI50 (UO-31)	GI50 (HOP-92)	GI50 (OVCAR-4)	GI50 (A498)	GI50 (SK-OV-3)	GI50 (RPMI-8226)	GI50 (Malme-3M)	GI50 (HL-60)	GI50 (HCT-116)	GI50 (MDA-MB-435)	GI50 (Hs-578T)	GI50 (DU-145)	GI50 (MDA-MB-231)
O=C1CCC2(c3ccccc3)Nc3ncccc3N12 (configuration not stated)	> 100 µM (inactive)	> 100 µM (inactive)	> 100 µM (inactive)	> 100 µM (inactive)	> 100 µM (inactive)	> 100 µM (inactive)	> 100 µM (inactive)	> 100 µM (inactive)	> 100 µM (inactive)	> 100 µM (inactive)	> 100 µM (inactive)	> 100 µM (inactive)	> 100 µM (inactive)	> 100 µM (inactive)	> 100 µM (inactive)	–	–	–	–	–
CC(=O)Oc1cc(OC(C)=O)c2cc3c(cc2c1OC(C)=O)C(=O)C1(CCCC1)C3=O	17.2 µM (inactive)	21.4 µM (inactive)	–	3.18 µM (inactive)	17.5 µM (inactive)	20 µM (inactive)	–	16.3 µM (inactive)	15.1 µM (inactive)	18.6 µM (inactive)	–	17.6 µM (inactive)	2.29 µM (inactive)	17.9 µM (inactive)	20.8 µM (inactive)	–	–	–	–	–
CCOC(=O)c1cnc2c(ccc3ncccc32)c1NCCCN(CC)CC	> 100 µM (inactive)	> 100 µM (inactive)	38.3 µM (inactive)	23 µM (inactive)	35.2 µM (inactive)	> 100 µM (inactive)	> 100 µM (inactive)	76.4 µM (inactive)	65.8 µM (inactive)	30 µM (inactive)	> 100 µM (inactive)	> 100 µM (inactive)	38.2 µM (inactive)	> 100 µM (inactive)	14.6 µM (inactive)	–	–	–	–	–
ON1CCc2c([nH]c3ccccc23)C1c1ccc(Cl)cc1 (configuration not stated)	36.8 µM (inactive)	76.4 µM (inactive)	27.5 µM (inactive)	21.4 µM (inactive)	–	35.8 µM (inactive)	30.1 µM (inactive)	25.8 µM (inactive)	16.8 µM (inactive)	–	33.1 µM (inactive)	46.7 µM (inactive)	29.6 µM (inactive)	29.4 µM (inactive)	25.9 µM (inactive)	0.384 µM (active)	–	–	–	–
CCCC1C(=O)C(CC)Cc2c(OC)ccc(OC)c21 (configuration not stated)	> 100 µM (inactive)	> 100 µM (inactive)	> 100 µM (inactive)	> 100 µM (inactive)	> 100 µM (inactive)	> 100 µM (inactive)	> 100 µM (inactive)	> 100 µM (inactive)	> 100 µM (inactive)	> 100 µM (inactive)	–	> 100 µM (inactive)	> 100 µM (inactive)	> 100 µM (inactive)	> 100 µM (inactive)	–	–	–	–	–
CCCCCCCCCCCCCCCCCCOCC(O)COP(=O)(O)OCC1OC(n2cc(F)c(=O)[nH]c2=O)CC1O (configuration not stated)	–	0.15 µM (active)	14.5 µM (inactive)	3.02 µM (inactive)	0.678 µM (active)	37 µM (inactive)	12.8 µM (inactive)	1.16 µM (inactive)	4.02 µM (inactive)	15.1 µM (inactive)	2.66 µM (inactive)	12.8 µM (inactive)	2.17 µM (inactive)	14.4 µM (inactive)	6.56 µM (inactive)	1.29 µM (inactive)	17.7 µM (inactive)	14.3 µM (inactive)	1.15 µM (inactive)	19.1 µM (inactive)
O=C(N/N=C(\C1=Nc2ccc(Cl)cc2NC1O)C(O)/C=C/c1ccccc1)c1ccncc1 (configuration not stated)	> 100 µM (inactive)	> 100 µM (inactive)	> 100 µM (inactive)	> 100 µM (inactive)	> 100 µM (inactive)	–	> 100 µM (inactive)	30.8 µM (inactive)	54.5 µM (inactive)	> 100 µM (inactive)	–	> 100 µM (inactive)	> 100 µM (inactive)	> 100 µM (inactive)	> 100 µM (inactive)	> 100 µM (inactive)	–	–	–	–
Cc1cccc(C)c1NC(=O)C1=NC(=S)NC(c2ccccc2)C1c1nc2ccccc2s1 (configuration not stated)	> 100 µM (inactive)	–	> 100 µM (inactive)	> 100 µM (inactive)	> 100 µM (inactive)	> 100 µM (inactive)	> 100 µM (inactive)	> 100 µM (inactive)	> 100 µM (inactive)	> 100 µM (inactive)	> 100 µM (inactive)	> 100 µM (inactive)	–	> 100 µM (inactive)	> 100 µM (inactive)	> 100 µM (inactive)	–	–	–	–
Cc1ccc(C)c(N2C/C(=N\NC(=O)CC#N)C(c3nc4ccccc4s3)C(=O)C2=O)c1 (configuration not stated)	> 100 µM (inactive)	> 100 µM (inactive)	> 100 µM (inactive)	> 100 µM (inactive)	> 100 µM (inactive)	> 100 µM (inactive)	> 100 µM (inactive)	> 100 µM (inactive)	> 100 µM (inactive)	> 100 µM (inactive)	> 100 µM (inactive)	> 100 µM (inactive)	–	> 100 µM (inactive)	> 100 µM (inactive)	> 100 µM (inactive)	–	–	–	–
